Paper PMC7385619, “A triple action CDK4/6-PI3K-BET inhibitor with augmented cancer cell cytotoxicity” (Cell Discovery, 2020)

Legend:
Experiment in all cases: KINOMEscan assay (Eurofins DiscoverX)
Format in all cases: binding
kinome (kinase panel) [1] = target: T1, kinome (kinase panel) (Homo sapiens, UniProt O00444); details: PLK4; 1000 nM; read-out: Percent Control
T1 construct: purchased Eurofins DiscoverX

kinome (kinase panel) [2] = target: T2, kinome (kinase panel) (Homo sapiens, UniProt O14733); details: MKK7 (Entrez MAP2K7); 1000 nM; read-out: Percent Control
T2 construct: purchased Eurofins DiscoverX

kinome (kinase panel) [3] = target: T3, kinome (kinase panel) (Homo sapiens, UniProt P00519, F317I)
T3 construct: purchased Eurofins DiscoverX
T3 sequence (P00519 whole entry F317I): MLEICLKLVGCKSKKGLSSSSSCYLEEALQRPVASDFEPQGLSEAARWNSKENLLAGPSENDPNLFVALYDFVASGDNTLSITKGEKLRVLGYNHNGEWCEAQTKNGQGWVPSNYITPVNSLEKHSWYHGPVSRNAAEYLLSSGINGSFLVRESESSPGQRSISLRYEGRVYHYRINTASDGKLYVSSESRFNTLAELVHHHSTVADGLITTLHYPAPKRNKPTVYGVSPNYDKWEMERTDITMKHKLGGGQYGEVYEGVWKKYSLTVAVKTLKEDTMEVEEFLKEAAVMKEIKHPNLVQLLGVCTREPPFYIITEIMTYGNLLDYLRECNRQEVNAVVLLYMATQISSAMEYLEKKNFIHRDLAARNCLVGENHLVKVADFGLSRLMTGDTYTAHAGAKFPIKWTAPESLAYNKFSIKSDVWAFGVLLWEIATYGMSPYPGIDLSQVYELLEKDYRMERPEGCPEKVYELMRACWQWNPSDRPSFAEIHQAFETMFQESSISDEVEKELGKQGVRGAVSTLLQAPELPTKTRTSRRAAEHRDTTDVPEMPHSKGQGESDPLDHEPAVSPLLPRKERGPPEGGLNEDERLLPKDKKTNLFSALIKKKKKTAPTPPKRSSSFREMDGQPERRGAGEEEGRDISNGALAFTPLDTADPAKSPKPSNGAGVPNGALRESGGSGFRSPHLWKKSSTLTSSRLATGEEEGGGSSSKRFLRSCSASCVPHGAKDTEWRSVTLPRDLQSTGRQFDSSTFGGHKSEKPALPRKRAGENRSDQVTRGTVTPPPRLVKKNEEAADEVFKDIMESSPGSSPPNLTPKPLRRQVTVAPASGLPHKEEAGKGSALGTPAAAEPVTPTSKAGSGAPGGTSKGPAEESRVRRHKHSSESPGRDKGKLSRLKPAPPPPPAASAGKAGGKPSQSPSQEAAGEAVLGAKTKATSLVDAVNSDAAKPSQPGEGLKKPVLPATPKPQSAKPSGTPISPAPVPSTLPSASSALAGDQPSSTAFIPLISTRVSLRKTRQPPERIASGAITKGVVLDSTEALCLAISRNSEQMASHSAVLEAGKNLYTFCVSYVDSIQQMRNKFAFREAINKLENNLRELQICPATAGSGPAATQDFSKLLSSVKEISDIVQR

kinome (kinase panel) [4] = target: T4, kinome (kinase panel) (Homo sapiens, UniProt P00533, DEL752-759); details: EGFR(S752-I759del); 1000 nM; read-out: Percent Control
T4 construct: purchased Eurofins DiscoverX

kinome (kinase panel) [5] = target: T5, kinome (kinase panel) (Homo sapiens, UniProt P07332); details: FES; 1000 nM; read-out: Percent Control
T5 construct: purchased Eurofins DiscoverX

kinome (kinase panel) [6] = target: T6, kinome (kinase panel) (Homo sapiens, UniProt P08631); details: HCK; 1000 nM; read-out: Percent Control
T6 construct: purchased Eurofins DiscoverX
T6 sequence (P08631 whole entry): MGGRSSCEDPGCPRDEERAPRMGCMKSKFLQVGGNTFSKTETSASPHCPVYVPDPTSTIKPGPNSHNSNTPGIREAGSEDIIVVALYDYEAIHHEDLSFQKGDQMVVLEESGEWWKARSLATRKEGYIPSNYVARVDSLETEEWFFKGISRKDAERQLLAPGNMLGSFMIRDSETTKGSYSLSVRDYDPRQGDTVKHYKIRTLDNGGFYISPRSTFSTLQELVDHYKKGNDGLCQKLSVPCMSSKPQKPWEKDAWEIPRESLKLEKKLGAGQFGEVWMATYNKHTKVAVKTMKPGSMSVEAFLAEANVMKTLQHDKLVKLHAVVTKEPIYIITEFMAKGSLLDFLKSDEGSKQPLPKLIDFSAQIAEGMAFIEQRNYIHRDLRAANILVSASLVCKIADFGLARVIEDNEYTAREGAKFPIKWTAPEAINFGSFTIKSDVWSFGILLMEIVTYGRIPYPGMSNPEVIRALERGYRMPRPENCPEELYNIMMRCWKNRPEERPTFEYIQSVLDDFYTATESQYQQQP

kinome (kinase panel) [7] = target: T7, kinome (kinase panel) (Homo sapiens, UniProt P08922); details: ROS1; 1000 nM; read-out: Percent Control
T7 construct: purchased Eurofins DiscoverX

kinome (kinase panel) [8] = target: T8, kinome (kinase panel) (Homo sapiens, UniProt P09619); details: PDGFRB; 1000 nM; read-out: Percent Control
T8 construct: purchased Eurofins DiscoverX

kinome (kinase panel) [9] = target: T9, kinome (kinase panel) (Homo sapiens, UniProt P16591); details: FER; 1000 nM; read-out: Percent Control
T9 construct: purchased Eurofins DiscoverX

kinome (kinase panel) [10] = target: T10, kinome (kinase panel) (Homo sapiens, UniProt P22694); details: PKAC-beta (Entrez PRKACB); 1000 nM; read-out: Percent Control
T10 construct: purchased Eurofins DiscoverX

kinome (kinase panel) [11] = target: T11, kinome (kinase panel) (Homo sapiens, UniProt P24723); details: PRKCH; 1000 nM; read-out: Percent Control
T11 construct: purchased Eurofins DiscoverX

kinome (kinase panel) [12] = target: T12, kinome (kinase panel) (Homo sapiens, UniProt P33981); details: TTK; 1000 nM; read-out: Percent Control
T12 construct: purchased Eurofins DiscoverX

kinome (kinase panel) [13] = target: T13, kinome (kinase panel) (Homo sapiens, UniProt P36888, N841I); details: […]; 1000 nM; read-out: Percent Control
T13 construct: purchased Eurofins DiscoverX

kinome (kinase panel) [14] = target: T14, kinome (kinase panel) (Homo sapiens, UniProt P42338); details: PIK3CB; 1000 nM; read-out: Percent Control
T14 construct: purchased Eurofins DiscoverX

kinome (kinase panel) [15] = target: T15, kinome (kinase panel) (Homo sapiens, UniProt P42681); details: TXK; 1000 nM; read-out: Percent Control
T15 construct: purchased Eurofins DiscoverX
T15 sequence (P42681 whole entry): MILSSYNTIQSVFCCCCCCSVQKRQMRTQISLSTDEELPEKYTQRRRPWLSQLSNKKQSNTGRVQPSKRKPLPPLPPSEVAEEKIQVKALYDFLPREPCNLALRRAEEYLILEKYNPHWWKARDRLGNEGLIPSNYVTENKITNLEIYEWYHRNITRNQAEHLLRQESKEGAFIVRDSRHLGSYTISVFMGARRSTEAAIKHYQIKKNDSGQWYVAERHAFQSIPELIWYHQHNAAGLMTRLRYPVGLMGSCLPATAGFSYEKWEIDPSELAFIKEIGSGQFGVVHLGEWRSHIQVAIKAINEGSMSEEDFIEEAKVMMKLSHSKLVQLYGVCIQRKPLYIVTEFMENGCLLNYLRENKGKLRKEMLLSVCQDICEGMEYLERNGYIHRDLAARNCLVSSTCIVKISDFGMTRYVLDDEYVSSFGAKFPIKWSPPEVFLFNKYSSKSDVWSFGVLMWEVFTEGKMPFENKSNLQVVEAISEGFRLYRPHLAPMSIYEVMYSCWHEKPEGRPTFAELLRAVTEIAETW

kinome (kinase panel) [16] = target: T16, kinome (kinase panel) (Homo sapiens, UniProt P48730); details: CSNK1D; 1000 nM; read-out: Percent Control
T16 construct: purchased Eurofins DiscoverX

kinome (kinase panel) [17] = target: T17, kinome (kinase panel) (Homo sapiens, UniProt Q06187); details: BTK; 1000 nM; read-out: Percent Control
T17 construct: purchased Eurofins DiscoverX
T17 sequence (Q06187 whole entry): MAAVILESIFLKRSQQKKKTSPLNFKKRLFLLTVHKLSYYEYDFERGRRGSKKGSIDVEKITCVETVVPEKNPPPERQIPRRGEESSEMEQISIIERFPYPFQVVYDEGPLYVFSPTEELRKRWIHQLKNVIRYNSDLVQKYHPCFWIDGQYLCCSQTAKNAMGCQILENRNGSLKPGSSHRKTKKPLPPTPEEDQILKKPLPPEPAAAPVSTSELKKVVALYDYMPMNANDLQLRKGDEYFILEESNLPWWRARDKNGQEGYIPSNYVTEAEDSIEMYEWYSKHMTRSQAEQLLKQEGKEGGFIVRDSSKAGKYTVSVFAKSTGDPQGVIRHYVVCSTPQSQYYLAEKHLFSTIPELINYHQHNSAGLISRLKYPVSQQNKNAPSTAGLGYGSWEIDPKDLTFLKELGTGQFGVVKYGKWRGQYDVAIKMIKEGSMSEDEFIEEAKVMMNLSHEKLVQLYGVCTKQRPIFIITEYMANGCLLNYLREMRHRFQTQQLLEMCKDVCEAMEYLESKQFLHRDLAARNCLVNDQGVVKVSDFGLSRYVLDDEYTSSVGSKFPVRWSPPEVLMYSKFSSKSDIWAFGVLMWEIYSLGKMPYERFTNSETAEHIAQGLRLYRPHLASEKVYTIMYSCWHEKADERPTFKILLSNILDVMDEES

kinome (kinase panel) [18] = target: T18, kinome (kinase panel) (Homo sapiens, UniProt Q14680); details: MELK; 1000 nM; read-out: Percent Control
T18 construct: purchased Eurofins DiscoverX

kinome (kinase panel) [19] = target: T19, kinome (kinase panel) (Homo sapiens, UniProt Q15139); details: PRKD1; 1000 nM; read-out: Percent Control
T19 construct: purchased Eurofins DiscoverX

kinome (kinase panel) [20] = target: T20, kinome (kinase panel) (Homo sapiens, UniProt Q6ZN16); details: MAP3K15; 1000 nM; read-out: Percent Control
T20 construct: purchased Eurofins DiscoverX

kinome (kinase panel) [21] = target: T21, kinome (kinase panel) (Homo sapiens, UniProt Q86Y07); details: VRK2; 1000 nM; read-out: Percent Control
T21 construct: purchased Eurofins DiscoverX
T21 sequence (Q86Y07 whole entry): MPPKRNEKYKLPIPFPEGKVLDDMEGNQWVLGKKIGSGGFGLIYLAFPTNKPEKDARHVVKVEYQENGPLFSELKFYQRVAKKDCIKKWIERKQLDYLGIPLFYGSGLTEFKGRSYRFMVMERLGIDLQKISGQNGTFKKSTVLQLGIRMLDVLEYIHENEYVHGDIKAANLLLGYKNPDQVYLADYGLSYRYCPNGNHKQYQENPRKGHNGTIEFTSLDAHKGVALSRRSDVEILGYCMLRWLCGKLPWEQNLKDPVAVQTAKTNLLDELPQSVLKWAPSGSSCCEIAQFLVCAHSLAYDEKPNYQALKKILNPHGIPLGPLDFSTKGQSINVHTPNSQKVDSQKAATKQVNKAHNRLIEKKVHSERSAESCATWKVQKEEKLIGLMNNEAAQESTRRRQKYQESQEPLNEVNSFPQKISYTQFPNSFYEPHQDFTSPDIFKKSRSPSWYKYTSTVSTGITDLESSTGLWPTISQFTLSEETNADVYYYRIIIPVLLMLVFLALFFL

kinome (kinase panel) [22] = target: T22, kinome (kinase panel) (Homo sapiens, UniProt Q8IY84); details: NIM1 (Entrez MGC42105); 1000 nM; read-out: Percent Control
T22 construct: purchased Eurofins DiscoverX
T22 sequence (Q8IY84 whole entry): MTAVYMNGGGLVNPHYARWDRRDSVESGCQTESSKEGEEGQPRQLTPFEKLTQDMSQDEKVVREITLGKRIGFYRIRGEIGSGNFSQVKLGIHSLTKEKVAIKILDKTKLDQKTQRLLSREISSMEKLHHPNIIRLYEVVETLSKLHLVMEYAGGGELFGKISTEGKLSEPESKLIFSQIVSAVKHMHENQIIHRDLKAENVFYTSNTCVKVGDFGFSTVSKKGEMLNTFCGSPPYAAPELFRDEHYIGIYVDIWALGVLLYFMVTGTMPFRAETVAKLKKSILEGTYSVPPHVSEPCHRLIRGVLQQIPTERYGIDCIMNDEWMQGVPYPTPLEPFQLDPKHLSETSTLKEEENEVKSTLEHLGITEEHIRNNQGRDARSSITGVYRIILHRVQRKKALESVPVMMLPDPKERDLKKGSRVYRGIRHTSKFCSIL

kinome (kinase panel) [23] = target: T23, kinome (kinase panel) (Homo sapiens, UniProt Q92630); details: DYRK2; 1000 nM; read-out: Percent Control
T23 construct: purchased Eurofins DiscoverX
T23 sequence (Q92630 whole entry): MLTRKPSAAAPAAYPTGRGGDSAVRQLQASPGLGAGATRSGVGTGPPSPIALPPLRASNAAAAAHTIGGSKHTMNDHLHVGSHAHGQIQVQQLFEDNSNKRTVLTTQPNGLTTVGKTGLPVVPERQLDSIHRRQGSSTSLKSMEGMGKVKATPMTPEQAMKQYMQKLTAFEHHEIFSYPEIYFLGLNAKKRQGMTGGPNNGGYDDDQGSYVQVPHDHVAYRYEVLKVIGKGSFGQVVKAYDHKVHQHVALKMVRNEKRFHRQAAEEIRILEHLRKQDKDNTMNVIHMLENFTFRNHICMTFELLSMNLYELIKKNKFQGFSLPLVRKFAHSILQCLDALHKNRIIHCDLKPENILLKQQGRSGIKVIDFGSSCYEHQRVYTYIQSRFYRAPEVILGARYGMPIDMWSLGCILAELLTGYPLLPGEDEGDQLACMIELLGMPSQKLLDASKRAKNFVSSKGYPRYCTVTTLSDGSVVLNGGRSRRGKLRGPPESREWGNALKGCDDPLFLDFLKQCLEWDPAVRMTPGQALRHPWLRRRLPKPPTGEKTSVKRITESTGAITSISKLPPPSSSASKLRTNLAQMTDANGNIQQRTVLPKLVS

kinome (kinase panel) [24] = target: T24, kinome (kinase panel) (Homo sapiens, UniProt Q96NX5); details: CAMK1G; 1000 nM; read-out: Percent Control
T24 construct: purchased Eurofins DiscoverX
T24 sequence (Q96NX5 whole entry): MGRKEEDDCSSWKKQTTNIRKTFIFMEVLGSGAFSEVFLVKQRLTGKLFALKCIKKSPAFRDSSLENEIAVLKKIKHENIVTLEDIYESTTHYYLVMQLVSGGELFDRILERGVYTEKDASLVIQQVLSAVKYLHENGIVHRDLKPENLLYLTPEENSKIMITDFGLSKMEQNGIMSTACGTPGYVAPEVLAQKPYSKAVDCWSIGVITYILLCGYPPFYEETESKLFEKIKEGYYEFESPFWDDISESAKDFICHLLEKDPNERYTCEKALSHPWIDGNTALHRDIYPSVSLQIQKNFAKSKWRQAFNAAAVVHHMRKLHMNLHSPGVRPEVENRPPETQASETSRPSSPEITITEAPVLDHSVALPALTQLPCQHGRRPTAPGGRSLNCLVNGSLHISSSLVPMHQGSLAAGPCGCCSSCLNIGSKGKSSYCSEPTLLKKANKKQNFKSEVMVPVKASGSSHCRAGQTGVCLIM

kinome (kinase panel) [25] = target: T25, kinome (kinase panel) (Homo sapiens, UniProt Q9BXA7); details: TSSK1B; 1000 nM; read-out: Percent Control
T25 construct: purchased Eurofins DiscoverX

kinome (kinase panel) [26] = target: T26, kinome (kinase panel) (Homo sapiens, UniProt Q9H093); details: SNARK (NUAK2); 1000 nM; read-out: Percent Control
T26 construct: purchased Eurofins DiscoverX

kinome (kinase panel) [27] = target: T27, kinome (kinase panel) (Homo sapiens, UniProt Q9P286); details: PAK7; 1000 nM; read-out: Percent Control
T27 construct: purchased Eurofins DiscoverX

kinome (kinase panel) [28] = target: T28, kinome (kinase panel) (Homo sapiens, UniProt Q9P2K8, S808G); details: read-out: Percent Control
T28 construct: purchased Eurofins DiscoverX

kinome (kinase panel) [29] = target: T29, kinome (kinase panel) (Homo sapiens, UniProt Q9UEE5); details: DRAK1 (Entrez STK17A); 1000 nM; read-out: Percent Control
T29 construct: purchased Eurofins DiscoverX

kinome (kinase panel) [30] = target: T30, kinome (kinase panel) (Homo sapiens, UniProt Q9UQB9); details: AURKC; 1000 nM; read-out: Percent Control
T30 construct: purchased Eurofins DiscoverX

kinome (kinase panel) [31] = target: T31, kinome (kinase panel) (Homo sapiens, UniProt Q9Y3S1); details: WNK2; 1000 nM; read-out: Percent Control
T31 construct: purchased Eurofins DiscoverX

kinome (kinase panel) [32] = target: T32, kinome (kinase panel) (Homo sapiens, UniProt Q9Y4K4); details: MAP4K5; 1000 nM; read-out: Percent Control
T32 construct: purchased Eurofins DiscoverX

CN(C)C(=O)c1cc2cnc(Nc3ccc(-c4csc5c(=O)cc(N6CCOCC6)oc45)cc3)nc2n1C1CCCC1 [SRX3177]
remaining binding at 1 µM (kinome (kinase panel) [1]): 60% | remaining binding at 1 µM (kinome (kinase panel) [2]): 46% | Percent Control (kinome (kinase panel) [3]): 96 | remaining binding at 1 µM (kinome (kinase panel) [3]; read-out: Percent Control): 81% | remaining binding at 1 µM (kinome (kinase panel) [4]): 100% | remaining binding at 1 µM (kinome (kinase panel) [5]): 88% | remaining binding at 1 µM (kinome (kinase panel) [6]): 100% | remaining binding at 1 µM (kinome (kinase panel) [7]): 96% | remaining binding at 1 µM (kinome (kinase panel) [8]): 44% | remaining binding at 1 µM (kinome (kinase panel) [9]): 92% | remaining binding at 1 µM (kinome (kinase panel) [10]): 100% | remaining binding at 1 µM (kinome (kinase panel) [11]): 97% | remaining binding at 1 µM (kinome (kinase panel) [12]): 1.8% | remaining binding at 1 µM (kinome (kinase panel) [13]): 7.2% | remaining binding at 1 µM (kinome (kinase panel) [14]): 22% | remaining binding at 1 µM (kinome (kinase panel) [15]): 98% | remaining binding at 1 µM (kinome (kinase panel) [16]): 83% | remaining binding at 1 µM (kinome (kinase panel) [17]): 67% | remaining binding at 1 µM (kinome (kinase panel) [18]): 100% | remaining binding at 1 µM (kinome (kinase panel) [19]): 100% | remaining binding at 1 µM (kinome (kinase panel) [20]): 100% | remaining binding at 1 µM (kinome (kinase panel) [21]): 21% | remaining binding at 1 µM (kinome (kinase panel) [22]): 69% | remaining binding at 1 µM (kinome (kinase panel) [23]): 69% | remaining binding at 1 µM (kinome (kinase panel) [24]): 75% | remaining binding at 1 µM (kinome (kinase panel) [25]): 90% | remaining binding at 1 µM (kinome (kinase panel) [26]): 70% | remaining binding at 1 µM (kinome (kinase panel) [27]): 89% | remaining binding at 1 µM (kinome (kinase panel) [28]): 71% | remaining binding at 1 µM (kinome (kinase panel) [29]): 100% | remaining binding at 1 µM (kinome (kinase panel) [30]): 21% | remaining binding at 1 µM (kinome (kinase panel) [31]): 77% | remaining binding at 1 µM (kinome (kinase panel) [32]): 100%
